Laboratory results from US10314295B2, “Mouse model of hyperuricemia” (PHOENIXBIO CO., LTD., priority 2014, dated 2019).

Tested on: hyperuricemia model mice
Assay: Allopurinol-induced change in plasma uric acid level in hyperuricemia model mice
Format: in vivo, mouse
Method: The hyperuricemia model mice obtained as described above were subjected to administration of allopurinol, which is an existing drug for lowering blood uric acid levels. The number of the mice subjected to administration of allopurinol was six.
Allopurinol (Wako Pure Chemical Industries, Ltd.) was suspended in a 0.5 w/v% methylcellulose (MC) 400 solution (sterilized, Wako Pure Chemical Industries, Ltd.) for preparation of a 0.5 mg/mL allopurinol suspension. The 0.5 mg/mL allopurinol suspension was orally administered once in a volume of 10 mL/kg body weight (5 mg/kg body weight).
Blood was collected from each mouse before and 2, 4 and 24 hours after allopurinol or a 0.5 w/v % methylcellulose 400 solution was administered. The plasma uric acid concentration was measured in the same manner as above.

## Oc1ncnc2[nH]ncc12 [allopurinol]
2 hours after single oral 5 mg/kg body weight, 6 mice, mean before administration 3.8 mg/dL, vehicle control 3.0 before, 4.8 at 2 hours
  mean of the plasma uric acid concentrations: 1.9 mg/dL
Single oral 5 mg/kg body weight, 2 hours after vs before administration
  change of plasma uric acid concentration by administration: significantly reduced
